{"source": "patent US12447242B2", "about": "“Hemostatic devices and methods of use” (MEDTRONIC INC., priority 2016, dated 2025)", "key": {"[1]": {"assay": "stability of rifampin and minocycline in PBS with and without tranexamic acid (Example 14)", "format": "physicochemical"}, "[2]": {"assay": "in vitro elution of rifampin and minocycline from p22-27.5 polymers with TXA in release media (Example 15)", "format": "physicochemical", "conditions": "PBS pH 7.4 without or with TXA (0.05 mg/mL, 5 mg/mL) in the release media, over 25 hours"}, "[3]": {"system": "myofibroblast formation", "conditions": "Ajmal et al. (2003); cited from earlier work"}, "[4]": {"assay": "time to reach plasma concentrations", "format": "in vivo", "conditions": "given preoperatively"}, "[5]": {"system": "blood", "assay": "time to induce blood clotting in vitro in the presence of TYRX (Example 17)", "format": "biochemical", "set-up": "dose or concentration left out as unconfirmed", "conditions": "higher amounts of TXA", "description": "Tests were conducted to compare the time required to induce blood clotting in vitro when different amounts of hemostatic agent is administered in the presence of TYRX (degradable mesh coated with P22-27.5 containing rifampin and minocycline), as shown in FIG. 24."}, "[6]": {"system": "blood", "assay": "time to induce blood clotting in vitro, different hemostatic agents (Example 18)", "format": "biochemical", "conditions": "1.2 mg of TXA alone", "description": "Tests were conducted to compare the time required for different hemostatic agents to induce blood clotting in vitro versus the time required to induce blood clotting in vitro when no hemostatic agent is administered. In particular, the time required to induce blood clotting was plotted for blood alone, TYRX, Surgicel, TYRX with 1.6 mg of TXA, 1.2 mg of TXA alone, and TYRX with 200 mg of TXA. In this example, TYRX refers to a Glycoprene mesh that is coated with P22-27.5 (a polymer in the P22-X family) containing Rifampin and Minocycline."}}}
{"smiles": "CO[C@H]1/C=C/O[C@@]2(C)Oc3c(C)c(O)c4c(O)c(c(/C=N/N5CCN(C)CC5)c(O)c4c3C2=O)NC(=O)/C(C)=C\\C=C\\[C@H](C)[C@H](O)[C@@H](C)[C@@H](O)[C@@H](C)[C@H](OC(C)=O)[C@@H]1C", "note": "[rifampin]", "values": [{"measurement": "percentage area of rifampin, mixtures with versus without tranexamic acid", "setting": "[1]; rifampin and minocycline in PBS, regardless of the temperature (RT or 37° C.)", "result": "substantially the same"}, {"measurement": "elution rate from p22-27.5 polymers", "setting": "[2]", "result": "not affected"}]}
{"smiles": "O=S(=O)([O-])CCS.[Na+]", "note": "[MESNA, sodium 2-mercaptoethane sulfonate]", "values": [{"measurement": "myofibroblast formation", "setting": "[3]", "result": "diminish myofibroblast formation"}]}
{"smiles": "NC[C@H]1CC[C@H](C(=O)O)CC1", "note": "[tranexamic acid]", "values": [{"measurement": "time to reach plasma concentrations", "setting": "[4]", "result": "5 to 15", "unit": "min"}, {"measurement": "effect on the stability of rifampin and minocycline", "setting": "[1]; PBS, RT and 37° C.", "result": "does not negatively affect"}, {"measurement": "clotting time", "setting": "[5]", "result": "increased"}, {"measurement": "time to induce blood clotting in vitro", "setting": "[6]", "result": "about 19 minutes"}]}
